Reference: patent US11466011B2, “Compounds and their use as inhibitors of N-myristoyl transferase” (Imperial College Innovations Limited, priority 2015, dated 2022)

Target: Trypanosoma brucei (Tb) N-myristoyl transferase (Trypanosoma brucei brucei, UniProt Q388H8)
Assay: Fluorescence-based NMT assay (a), adapted version, TbNMT
Assay type: biochemical

Chain of Trypanosoma brucei (Tb) N-myristoyl transferase (Q388H8 entry or part of it): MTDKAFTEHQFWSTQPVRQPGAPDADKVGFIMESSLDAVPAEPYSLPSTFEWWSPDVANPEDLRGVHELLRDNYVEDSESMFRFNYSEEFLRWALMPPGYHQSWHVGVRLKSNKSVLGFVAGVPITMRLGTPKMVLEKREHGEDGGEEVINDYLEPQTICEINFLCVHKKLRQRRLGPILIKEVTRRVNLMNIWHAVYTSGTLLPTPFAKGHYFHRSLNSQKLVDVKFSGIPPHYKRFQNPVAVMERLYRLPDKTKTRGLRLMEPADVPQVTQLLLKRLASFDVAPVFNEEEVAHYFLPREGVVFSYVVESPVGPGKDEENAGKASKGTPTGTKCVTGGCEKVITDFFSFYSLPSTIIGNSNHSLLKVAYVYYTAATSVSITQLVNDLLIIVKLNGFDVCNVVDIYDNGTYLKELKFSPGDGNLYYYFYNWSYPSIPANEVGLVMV

For `Cc1nn(C)c(C)c1CCOc1cc(F)ccc1-c1ccc2[nH]nc(CN(C)C)c2c1` [Example 7], the IC50 was 1 to 100 nM.
